This is an account of results in ChEMBL document CHEMBL1131999, “Design, synthesis and testing of amino-bicycloaryl based orally bioavailable thrombin inhibitors” (Bioorg Med Chem Lett, 1999).

One data set concerns the target Serine protease 1 (Homo sapiens, UniProt P07477). The data set is described as follows: In vitro trypsin inhibition.
The target of another data set is Prothrombin (Homo sapiens, UniProt P00734). The data set is described as follows: In vitro thrombin inhibition.
The next data set relates to Caco-2. The note with it: Homo sapiens.
The nature of data set [1]: Oral bioavailability in dog. Format: ADME, organism-based, Canis lupus familiaris. Particulars: in vivo.

Chain of Serine protease 1 (P07477 whole entry): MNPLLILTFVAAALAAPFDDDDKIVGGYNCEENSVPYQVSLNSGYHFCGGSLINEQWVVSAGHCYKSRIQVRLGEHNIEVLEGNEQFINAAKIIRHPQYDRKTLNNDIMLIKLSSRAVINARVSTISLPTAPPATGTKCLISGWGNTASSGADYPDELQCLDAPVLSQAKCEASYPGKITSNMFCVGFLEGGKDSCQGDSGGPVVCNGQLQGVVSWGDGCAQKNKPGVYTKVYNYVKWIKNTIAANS
Description for Caco-2: The compound was evaluated in vitro for the Caco-2 cell permeability.

For the compound `COc1ccc2ccc(S(=O)(=O)NC(Cc3cc4c(N)nccc4s3)C(=O)N3CCN(S(C)(=O)=O)CC3)cc2c1` (stereo not given), the values for the IC50 against Serine protease 1 and against Prothrombin were 18 µM and 560 nM, respectively.

Consider `CC1CCN(C(=O)C(Cc2cccc(C(=N)N)c2)NS(=O)(=O)c2ccc3ccccc3c2)CC1` (stereo not given), for which the figures for the concentration for half-maximal inhibition (IC50) against Serine protease 1 and at Prothrombin were 1.9 µM and 640 nM, respectively.

Turning to `COc1ccc2ccc(S(=O)(=O)NC(Cc3cc4c(N)nccc4o3)C(=O)N3CCC(C)CC3)cc2c1` (stereo not given), the Papp in the data set on Caco-2 was determined as 9 nm/s. The IC50 on Serine protease 1 is 6 µM; on Prothrombin, 1580 nM.

As for `COc1ccc2ccc(S(=O)(=O)NC(Cc3cc4c(N)nccc4s3)C(=O)N3CCN(C)CC3)cc2c1` (stereo not given), the concentration for half-maximal inhibition (IC50) is 13 µM on Serine protease 1 and 6000 nM against Prothrombin.

As to `COc1ccc2ccc(S(=O)(=O)NC(Cc3cc4c(N)nccc4s3)C(=O)N3CCC(C)CC3)cc2c1` (stereo not given), the bioavailability in data set [1] was determined as 36%. Further, the Papp with Caco-2 came to 121 nm/s. Moreover, the midpoint of inhibition at Serine protease 1, the IC50, lay at 4 µM.

For `COc1ccc2ccc(S(=O)(=O)NC(Cc3ccc4c(N)nccc4c3)C(=O)N3CCC(C)CC3)cc2c1` (stereo not given), the Papp in the data set with Caco-2 was determined as 75 nm/s. Further, the concentration for half-maximal inhibition (IC50) on Serine protease 1 turned out to be 27 µM; at Prothrombin it was 48000 nM.

`COc1ccc2ccc(S(=O)(=O)NC(Cc3cc4c(N)nccc4s3)C(=O)N3CCC(C(C)=O)CC3)cc2c1` (stereo not given) displayed an apparent permeability coefficient (Papp) in the data set on Caco-2 of 23 nm/s. Also, the concentration for half-maximal inhibition (IC50) came out at 2 µM against Serine protease 1 and 1400 nM on Prothrombin.

In turn, `CC1CCN(C(=O)C(Cc2cc3c(N)nccc3s2)NS(=O)(=O)c2ccc3ccccc3c2)CC1` (stereo not given) had a Papp with Caco-2 of 117 nm/s. The values for the half-inhibitory concentration (IC50) against Serine protease 1 and against Prothrombin were 205 µM and 209000 nM, respectively.

`COc1cc2ccc(S(=O)(=O)NC(Cc3cc4c(N)nccc4s3)C(=O)N3CCC(C)CC3)cc2cc1OC` (stereo not given): the IC50 amounted to 4 µM against Serine protease 1 and 5000 nM on Prothrombin.

As for `COc1ccc2ccc(S(=O)(=O)NC(Cc3ccc4ccnc(N)c4c3)C(=O)N3CCC(C)CC3)cc2c1` (stereo not given), the values for the IC50 against Serine protease 1 and against Prothrombin were 8 µM and 630 nM, respectively.
